Test results as given in patent US7074796B2 (H. Lundbeck A/S, priority 1999, dated 2006).
Structures can show the parent of a compound that is named as a salt.

Structure (SMILES)	melting point
Clc1cccc(N2CCN(CCCCCN3CCc4ccccc43)CC2)c1Cl (as salt: hydrochloride) [Compound 2c, 1-{5-[4-(2,3-Dichlorophenyl)piperazin-1-yl]pentyl}-2,3-dihydro-1H-indole]	219 to 228 °C
Clc1cccc(N2CCN(CCCCC3CCc4ccccc43)CC2)c1Cl (centres unmarked) (as salt: oxalate) [Compound 3, 1-(2,3-Dichlorophenyl)-4-[4-(indan-1-yl)butyl]piperazine]	171 to 176 °C
